Where a SMILES comes first, the peptide text is derived from it.
Key:
[1] = test system: HLA-A2.1 restricted H-Y specific T cell clones; assay: H-Y reconstitution assay with HLA-A2.1 restricted H-Y specific T cell clones R416 and 1R35; format: cell-based, human
Source text: HLA-A2 molecules were immunoaffinity purified from 10^10 DM cells. Peptides were eluted according to the methodology as described in legend to FIG. 1.
In the same manner as described above for the HLA-B7 restricted T-cell clone, the peptide recognized by two HLA-A2.1 T-cell clones was identified. In short the HLA-A2.1 restricted H-Y specific T cell clone R416 recognizes HPLC fraction 34, the HLA-A2.1 restricted H-Y specific T clone 1R35 recognizes HPLC fractions 36 and 39 (FIG. 6).

[2] = test system: T2-B7 cells; assay: H-Y epitope reconstitution, 51Cr release assay with HLA-B7-restricted H-Y specific CTL clone 5W4; format: cell-based, human; settings: T2-B7 cells sensitized with synthetic peptide, effector to target ratio 10 to 1, read-out: peptide concentration at which half-maximal lysis was achieved
Source text: Reconstitution of the H-Y epitope with HPLC fractionated peptides extracted from HLA-B7 molecules. (A) HLA-B7 molecules were immunoaffinity purified from […] H-Y positive JY cells. Peptides were eluted from B7 molecules with 10% acetic acid, pH 2.2, filtered through a 10 kD cut-off filter and fractionated on a C18 reverse phase column. Buffer A was 0.1% heptafluorobutyric acid (HFBA); buffer B was 0.1% HFBA in acetonitrile. The gradient consisted of 100% buffer A (0–20 mm), 0 to 12% buffer B (20 to 25 mm), and 12 to 50% buffer B (25 to 80 mm) at a flow rate of 200 μl/min. 60 fractions of 200 μl each were collected from 20 to 80 mm. […]
H-Y epitope reconstitution with synthetic peptides. […] Purity was established on an analytical RP column and the quantity of each peptide was confirmed by comparing the area of the peak with that of a standard peptide. […]
To isolate endogenously processed H-Y peptides, HLA-B7 molecules were purified by affinity chromatography from the H-Y positive, B lymphoblastoid cell line, JY (29). […] Although a single active peak of reconstituting activity was also observed from this separation (FIG. 1B, fraction 14, 15 and 16), it still contained more than 100 distinct peptide species, as assessed by electrospray ionization tandem mass spectrometry. […]

[3] = target: purified HLA-B7 (Homo sapiens, UniProt P01889); assay: Inhibition of binding of iodinated standard peptide to purified HLA-B7; settings: iodinated endogenous B7 peptide […]
Procedure: Binding of synthetic peptides to purified HLA-B7. HPLC-purified test peptides were assayed for the ability to inhibit the binding of the iodinated endogenous B7 peptide […] (SEQ ID NO:4) to purified HLA-B7 as previously described (40). (♦), SMCY peptide […] (SEQ ID NO:1); (▪) SMCX peptide […] (SEQ ID NO:3); (Δ), […] (SEQ ID NO:5), an endogenous peptide bound to HLA-B7; (x) […] (SEQ ID NO.6), an endogenous peptide bound to HLA-A2.1 as the negative control.
The corresponding peptide derived from the sequence of the X chromosomal homolog, SMCX, has substitutions of A for S at position 3 and Q for R at position 8. […] Thus, the significant difference in the ability of the SMCY and SMCX peptides to sensitize targets for T cell recognition is almost entirely due to the fine specificity of the T cell receptor, rather than to differences in MHC binding affinities. The SMCX peptide is also present in naturally processed peptide extracts of HLA-B7, although its abundance is only 25% of that of the SMCY peptide (33). Based on all of this information, it is concluded that the peptide epitopes representing the HLA-B7 restricted H-Y antigen is derived from the protein encoded by SMCY, which is also true for the HLA-A2.1 recognized peptide, also encoded by SMCY.

purified HLA-B7, sequence (P01889 25-362): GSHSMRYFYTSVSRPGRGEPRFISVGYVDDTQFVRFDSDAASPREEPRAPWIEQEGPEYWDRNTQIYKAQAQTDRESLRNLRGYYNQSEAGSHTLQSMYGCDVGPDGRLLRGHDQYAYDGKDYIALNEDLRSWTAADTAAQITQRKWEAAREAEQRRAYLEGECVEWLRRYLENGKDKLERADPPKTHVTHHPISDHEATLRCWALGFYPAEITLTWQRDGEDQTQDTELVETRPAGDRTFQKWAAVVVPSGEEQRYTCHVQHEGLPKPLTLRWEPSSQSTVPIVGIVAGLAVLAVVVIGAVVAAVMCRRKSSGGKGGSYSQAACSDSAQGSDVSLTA
purified HLA-B7, sequence (P61769 21-119 partner): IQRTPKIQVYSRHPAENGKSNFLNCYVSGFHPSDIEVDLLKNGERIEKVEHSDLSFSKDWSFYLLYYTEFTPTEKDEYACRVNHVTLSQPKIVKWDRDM

## FIDSYICQV (listed as Homo sapiens) [SMCY-encoded peptide recognized by HLA-A2.1 restricted H-Y specific T cell clones]
[1]
  recognition by HLA-A2.1 restricted H-Y specific T cell clones: recognize

## CC(C)C[C@H](NC(=O)[C@H](CCC(=O)O)NC(=O)[C@H](C)NC(=O)[C@H](CCCNC(=N)N)NC(=O)[C@H](C)NC(=O)[C@H](CCCCN)NC(=O)[C@H](CC(=O)O)NC(=O)[C@@H](NC(=O)[C@H](CO)NC(=O)[C@@H]1CCCN1C(=O)[C@@H](N)CO)C(C)C)C(=O)O [SMCY peptide] (H-SPSVDKARAEL-OH; N-terminus and C-terminus assumed)
[2]
  EC50: 0.01 nM
[3]
  IC50: 34 nM

## CC(C)C[C@H](NC(=O)[C@H](CCC(=O)O)NC(=O)[C@H](C)NC(=O)[C@H](CCC(N)=O)NC(=O)[C@H](C)NC(=O)[C@H](CCCCN)NC(=O)[C@H](CC(=O)O)NC(=O)[C@@H](NC(=O)[C@H](C)NC(=O)[C@@H]1CCCN1C(=O)[C@@H](N)CO)C(C)C)C(=O)O [SMCX peptide, reference compound] (H-SPAVDKAQAEL-OH)
[3]
  IC50: 140 nM

Reference: patent US7008922B2, “H-Y antigen” (Rijksuniversiteit te Leiden, priority 1995, dated 2006)
